In ChEMBL document CHEMBL5143529, “Design, synthesis, and biological evaluation of novel (4-(1,2,4-oxadiazol-5-yl)phenyl)-2-aminoacetamide derivatives as multifunctional agents for the treatment of Alzheimer's disease” (Eur J Med Chem, 2022):
Activity calls are given as the source filed them. No cut-off for these calls is given here.

Key:
Acetylcholinesterase = Acetylcholinesterase (Electrophorus electricus, UniProt O42275); assay: Inhibition of electric eel AChE using acetylthiocholine iodide as substrate preincubated for 20 mins followed by substrate addition and measured after 5 mins by DTNB-reagent based Ellman's method
[1] = molecular target: Cholinesterase (Equus caballus) (UniProt P81908); assay: Mixed type inhibition of equine serum BuChE assessed as decrease in Vmax with increase in Km at 0.5 to 2 uM using varying level of butyrylthiocholine iodide as substrate by Lineweaver-Burk plot double reciprocal analysis; conditions: dose 0.5-2 µM
Cholinesterase [2] = molecular target: T1, Cholinesterase (Equus caballus, UniProt P81908); assay: Mixed type inhibition of equine serum BuChE assessed as inhibition constant using varying level of butyrylthiocholine iodide as substrate by Lineweaver-Burk plot double reciprocal analysis
PC-12 [3] = assay: Neuroprotective activity against H202-induced cell death in rat PC-12 cells assessed as cell viability at 5 uM pretreated for 3 hrs followed by H2O2 stimulation and measured after 24 hrs by MTT assay relative to control; format: functional; conditions: time 27 hrs, read-out: Activity
PC-12 [4] = assay: Neuroprotective activity against H202-induced cell death in rat PC-12 cells assessed as cell viability at 20 uM pretreated for 3 hrs followed by H2O2 stimulation and measured after 24 hrs by MTT assay relative to control; format: functional; conditions: time 27 hrs, read-out: Activity
[5] = Cytotoxicity against rat PC-12 cells assessed as cell viability at 25 uM incubated for 24 hrs by MTT assay relative to control; format: toxicity, cell-based; conditions: read-out: Activity
[6] = Cytotoxicity against rat PC-12 cells assessed as cell viability at 50 uM incubated for 24 hrs by MTT assay relative to control; format: toxicity, cell-based; conditions: read-out: Activity
[7] = molecular target: Amyloid-beta precursor protein (Homo sapiens) (UniProt P05067); assay: Inhibition of amyloid beta (1 to 42 ) (unknown origin) self aggregation at 100 uM measured after 48 hrs by transmission electron microscopic analysis
[8] = Inhibition of LPS-induced IL-1beta secretion in mouse BV-2 cells preincubated for 1 hr followed by LPS stimulation and measured after 24 hrs by ELISA; format: functional, cell-based
[9] = Inhibition of LPS-induced TNF-alpha secretion in mouse BV-2 cells preincubated for 1 hr followed by LPS stimulation and measured after 24 hrs by ELISA; format: functional, cell-based
BV-2 [10] = assay: Downregulation of COX-2 protein expression in LPS-stimulated mouse BV-2 cells preincubated for 1 hr followed by LPS stimulation and measured after 24 hrs by Western blot analysis; format: functional, cell-based; conditions: dose 1-10 µM, time 25.0 hrs, DDE = dose-dependent effect
BV-2 [11] = assay: Downregulation of iNOS protein expression in LPS-stimulated mouse BV-2 cells preincubated for 1 hr followed by LPS stimulation and measured after 24 hrs by Western blot analysis; format: functional, cell-based; conditions: dose 1-10 µM, time 25.0 hrs, DDE = dose-dependent effect
[12] = molecular target: T2, Inhibitor of nuclear factor kappa-B kinase subunit beta (Mus musculus) (UniProt O88351); assay: Inhibition of IkappaB activation in LPS-stimulated mouse BV-2 cells pretreated for 1 hr followed by LPS stimulation and measured after 24 hrs by Western blot analysis; format: cell-based; conditions: dose 1-10 µM, time 25.0 hrs, DDE = dose-dependent effect
T2 sequence (whole entry): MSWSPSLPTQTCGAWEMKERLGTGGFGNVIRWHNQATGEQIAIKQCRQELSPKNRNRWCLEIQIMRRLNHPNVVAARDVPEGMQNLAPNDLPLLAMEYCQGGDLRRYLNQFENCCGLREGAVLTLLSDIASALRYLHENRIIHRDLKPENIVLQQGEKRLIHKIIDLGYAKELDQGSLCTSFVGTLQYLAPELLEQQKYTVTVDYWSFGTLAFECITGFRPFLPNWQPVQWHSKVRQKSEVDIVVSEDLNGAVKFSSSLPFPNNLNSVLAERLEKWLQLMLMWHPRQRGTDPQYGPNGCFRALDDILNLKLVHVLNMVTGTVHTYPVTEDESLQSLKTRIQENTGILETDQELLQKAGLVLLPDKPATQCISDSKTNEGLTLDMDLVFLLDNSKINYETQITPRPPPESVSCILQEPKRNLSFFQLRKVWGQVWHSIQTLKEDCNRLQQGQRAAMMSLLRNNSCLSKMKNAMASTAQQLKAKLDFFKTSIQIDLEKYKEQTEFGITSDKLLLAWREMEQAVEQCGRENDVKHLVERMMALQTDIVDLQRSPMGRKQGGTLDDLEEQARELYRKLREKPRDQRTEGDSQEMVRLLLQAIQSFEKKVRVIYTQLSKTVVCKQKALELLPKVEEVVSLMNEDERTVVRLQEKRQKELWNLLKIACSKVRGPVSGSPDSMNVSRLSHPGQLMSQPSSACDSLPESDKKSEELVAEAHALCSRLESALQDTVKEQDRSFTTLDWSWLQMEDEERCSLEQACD

[13] = molecular target: T2, Inhibitor of nuclear factor kappa-B kinase subunit beta (Mus musculus); assay: Inhibition of IkappaB phosphorylation in LPS-stimulated mouse BV-2 cells pretreated for 1 hr followed by LPS stimulation and measured after 24 hrs by Western blot analysis; format: cell-based; conditions: dose 1-10 µM, time 25.0 hrs, DDE = dose-dependent effect
[14] = molecular target: Transcription factor p65 (Mus musculus) (UniProt Q04207); assay: Inhibition of p65 phosphorylation in LPS-stimulated mouse BV-2 cells at 1 to 10 uM pretreated for 1 hr followed by LPS stimulation and measured after 24 hrs by Western blot analysis; format: cell-based; conditions: dose 1-10 µM, time 25.0 hrs
BV-2 [15] = assay: Inhibition of NF-kappaB in LPS-stimulated mouse BV-2 cells assessed as reduction in translocation of p65 NF-kappaB from cytoplasm to nucleus at 1 to 10 uM pretreated for 1 hr followed by LPS stimulation and measured after 24 hrs; format: cell-based; conditions: dose 1-10 µM, time 25.0 hrs
PC-12 [16] = assay: Inhibition of H2O2-induced ROS production in rat PC-12 cells assessed as reduction in ROS accumulation at 1 to 50 uM pretreated for 6 hrs followed by H2O2 stimulation and measured after 18 hrs by DCFH-DA staining based fluorescence assay; format: functional, cell-based; conditions: dose 1-50 µM, time 24.0 hrs
SH-SY5Y = assay: Inhibition of H2O2-induced ROS production in human SH-SY5Y cells assessed as reduction in ROS accumulation at 1 to 50 uM pretreated for 6 hrs followed by H2O2 stimulation and measured after 18 hrs by DCFH-DA staining based fluorescence assay; format: functional, cell-based; conditions: dose 1-50 µM, time 24.0 hrs
[17] = Antioxidant activity assessed as DPPH radical scavenging activity at 10 uM incubated for 2 hrs under dark condition by microplate reader method relative to control; format: functional
[18] = Antioxidant activity assessed as DPPH radical scavenging activity at 1000 uM incubated for 2 hrs under dark condition by microplate reader method relative to control; format: functional
[19] = Metal chelating activity assessed as Cu2+-compound complex formation by measuring reduction in maximum absorbance intensity at 20 uM incubated for 1 hr by UV-visible spectrophotometry
[20] = Toxicity in C57BL/6 mouse assessed as median lethal dose administered intragastrically for 7 days; conditions: in vivo, po, time 7 day
[21] = Toxicity in C57BL/6 mouse assessed as abnormal fluctuations in body weight at 10 to 30 mg/kg, IG measured after 7 days; format: organism-based; conditions: in vivo, po, 168 h, dose 10-30 mg/kg, time 7 day
[22] = Toxicity in C57BL/6 mouse model of scopolamine-induced Alzheimer's disease assessed as changes in swimming speed at 10 to 30 mg/kg, IG measured after 7 days; format: organism-based; conditions: in vivo, po, 168 h, dose 10-30 mg/kg, time 7 day
Mus musculus [23] = assay: Anti-alzheimer activity against scopolamine-induced cognitive dysfunction C57BL/6 mouse model assessed as reduction in escape latency time administered intragastrically for 7 days followed by scopolamine stimulation and measured after 4 days by Morris water maze test; format: functional, organism-based; conditions: dose 10-30 mg/kg, route ig, time 11.0 day, DDE = dose-dependent effect
Mus musculus [24] = assay: Anti-alzheimer activity against scopolamine-induced cognitive dysfunction C57BL/6 mouse model assessed as improvement in cognitive impairment by measuring increase in number of platform crossing at 30 mg/kg, IG administered for 7 days followed by scopolamine stimulation and measured after 4 days by Morris water maze test; format: functional, organism-based; conditions: time 11.0 day
Cholinesterase [25] = molecular target: T1, Cholinesterase
Description: Inhibition of equine serum BuChE using butyrylthiocholine iodide as substrate preincubated for 20 mins followed by substrate addition and measured after 5 mins by DTNB-reagent based Ellman's method

cells = conditions: Mus musculus, BV-2
Description: Inhibition of NO production in LPS-induced mouse BV-2 cells pretreated for 1 hr followed by LPS stimulation and measured after 24 hrs by ELISA

in vitro [26] = conditions: dog, MDCK-MDR1
Description: Apparent permeability across apical to basolateral side in MDCKII-MDR1 cells at 75 uM incubated for 2 hrs

in vitro [27] = conditions: dog, MDCK-MDR1; remark: listed apart in the source
Description: Apparent permeability across basolateral to apical side in MDCKII-MDR1 cells at 75 uM incubated for 2 hrs

P-glycoprotein = assay: in vitro; conditions: dog, MDCK-MDR1
Description: Substrate activity at P-glycoprotein in MDCKII-MDR1 cells assessed as efflux ratio apparent permeability across basolateral to apical side over apical to basolateral side at 75 uM incubated for 2 hrs

[28] = Potency index, ratio of resveratrol IC50 to test compound IC50 for inhibition of NO production in LPS-induced mouse BV-2 cells pretreated for 1 hr followed by LPS stimulation and measured after 24 hrs by ELISA; format: functional; conditions: time 25 hrs

Acetylcholinesterase, sequence (O42275 whole entry): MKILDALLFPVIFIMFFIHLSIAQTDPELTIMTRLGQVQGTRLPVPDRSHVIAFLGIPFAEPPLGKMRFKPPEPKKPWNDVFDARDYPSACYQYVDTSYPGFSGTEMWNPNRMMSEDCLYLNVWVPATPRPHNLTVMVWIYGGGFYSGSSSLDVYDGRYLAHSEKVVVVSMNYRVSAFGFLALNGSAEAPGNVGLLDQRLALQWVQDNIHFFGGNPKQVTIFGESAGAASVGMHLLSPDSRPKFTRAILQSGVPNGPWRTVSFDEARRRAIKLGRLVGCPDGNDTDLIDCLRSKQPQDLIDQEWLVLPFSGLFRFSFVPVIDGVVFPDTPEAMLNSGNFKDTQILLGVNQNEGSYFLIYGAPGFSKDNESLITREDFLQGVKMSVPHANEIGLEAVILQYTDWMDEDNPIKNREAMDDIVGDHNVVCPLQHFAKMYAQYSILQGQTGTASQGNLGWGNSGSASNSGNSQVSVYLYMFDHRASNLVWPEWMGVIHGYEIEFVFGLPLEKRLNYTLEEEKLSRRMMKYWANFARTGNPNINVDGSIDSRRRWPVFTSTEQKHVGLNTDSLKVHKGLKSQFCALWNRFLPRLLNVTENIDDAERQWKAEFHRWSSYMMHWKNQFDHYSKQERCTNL
T1 sequence (P81908 whole entry): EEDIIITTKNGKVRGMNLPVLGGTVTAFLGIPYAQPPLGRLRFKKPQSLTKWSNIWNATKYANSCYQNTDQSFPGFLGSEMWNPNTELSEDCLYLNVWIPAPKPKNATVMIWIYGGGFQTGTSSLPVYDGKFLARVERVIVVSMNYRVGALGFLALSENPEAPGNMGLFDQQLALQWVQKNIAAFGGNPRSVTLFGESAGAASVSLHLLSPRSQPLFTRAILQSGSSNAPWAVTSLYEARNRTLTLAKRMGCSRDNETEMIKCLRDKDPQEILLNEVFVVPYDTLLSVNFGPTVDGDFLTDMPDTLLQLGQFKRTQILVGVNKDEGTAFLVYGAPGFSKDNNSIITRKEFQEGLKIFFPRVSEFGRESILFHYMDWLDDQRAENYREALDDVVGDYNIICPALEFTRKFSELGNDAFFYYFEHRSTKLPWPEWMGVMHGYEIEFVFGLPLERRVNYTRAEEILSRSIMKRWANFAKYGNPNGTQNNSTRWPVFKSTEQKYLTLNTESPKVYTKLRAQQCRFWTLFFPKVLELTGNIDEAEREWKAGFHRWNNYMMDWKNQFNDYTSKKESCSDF
Cholinesterase (Equus caballus), sequence (P81908 whole entry): as above
Amyloid-beta precursor protein (Homo sapiens), sequence (P05067 whole entry): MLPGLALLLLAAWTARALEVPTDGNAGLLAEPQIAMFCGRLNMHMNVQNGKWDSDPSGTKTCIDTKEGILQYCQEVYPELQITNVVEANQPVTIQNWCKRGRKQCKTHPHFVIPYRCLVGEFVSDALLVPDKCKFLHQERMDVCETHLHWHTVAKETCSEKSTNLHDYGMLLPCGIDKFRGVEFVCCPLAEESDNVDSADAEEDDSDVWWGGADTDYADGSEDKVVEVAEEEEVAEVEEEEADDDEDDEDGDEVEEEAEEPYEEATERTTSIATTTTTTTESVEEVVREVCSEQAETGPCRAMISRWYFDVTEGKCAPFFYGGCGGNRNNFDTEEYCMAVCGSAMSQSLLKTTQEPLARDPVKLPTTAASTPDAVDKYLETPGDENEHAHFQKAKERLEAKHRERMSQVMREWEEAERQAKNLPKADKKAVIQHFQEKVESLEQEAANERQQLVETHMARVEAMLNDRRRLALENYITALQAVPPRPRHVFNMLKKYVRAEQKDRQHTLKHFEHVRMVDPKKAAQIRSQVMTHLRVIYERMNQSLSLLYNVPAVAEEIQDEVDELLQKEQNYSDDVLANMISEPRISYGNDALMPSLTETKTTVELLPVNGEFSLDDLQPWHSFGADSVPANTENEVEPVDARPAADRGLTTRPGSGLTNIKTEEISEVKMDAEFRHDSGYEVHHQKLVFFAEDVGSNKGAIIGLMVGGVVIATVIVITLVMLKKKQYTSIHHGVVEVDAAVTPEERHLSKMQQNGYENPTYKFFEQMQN
Transcription factor p65 (Mus musculus), sequence (Q04207 whole entry): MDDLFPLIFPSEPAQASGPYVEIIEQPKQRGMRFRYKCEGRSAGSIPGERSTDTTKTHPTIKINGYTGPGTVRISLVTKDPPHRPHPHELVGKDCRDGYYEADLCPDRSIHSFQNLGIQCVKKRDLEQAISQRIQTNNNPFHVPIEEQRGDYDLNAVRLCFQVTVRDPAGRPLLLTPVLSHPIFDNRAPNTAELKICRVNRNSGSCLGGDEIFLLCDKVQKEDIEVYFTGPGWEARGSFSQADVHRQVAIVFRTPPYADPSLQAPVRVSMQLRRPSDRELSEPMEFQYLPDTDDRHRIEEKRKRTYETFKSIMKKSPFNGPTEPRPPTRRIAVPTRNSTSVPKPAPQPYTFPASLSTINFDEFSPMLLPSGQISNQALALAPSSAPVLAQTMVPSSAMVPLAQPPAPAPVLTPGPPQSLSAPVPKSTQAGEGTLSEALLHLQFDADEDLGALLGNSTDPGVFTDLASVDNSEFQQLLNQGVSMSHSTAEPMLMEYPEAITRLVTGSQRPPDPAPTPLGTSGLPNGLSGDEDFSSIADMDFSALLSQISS

O=C(CNc1ccc(F)cc1)Nc1ccc(-c2nc(-c3ccnc(Nc4ccc(OC(F)(F)F)cc4)c3)no2)cc1
IC50 (Acetylcholinesterase): > 50 µM
inhibition [1]: Active
Ki (Cholinesterase [2]): 0.61 µM
viability at 5 µM (PC-12 [3]): 46.5%
viability at 20 µM (PC-12 [4]): 66.4%
viability at 24 h, 25 µM [5]: 99.7%
viability at 24 h, 50 µM [6]: 98.8%
inhibition [7]: Active
IC50 [8]: 1.61 µM
IC50 [9]: 4.15 µM
Activity (BV-2 [10]): Dde
Activity (BV-2 [11]): Dde
inhibition [12]: Dde
inhibition [13]: Dde
inhibition [14]: Active
inhibition (BV-2 [15]): Active
inhibition (PC-12 [16]): Active
inhibition (SH-SY5Y): Active
Activity [17]: 86.1%
Activity [18]: 34.6%
Activity [19]: Active
LD50 at 168 h [20]: 75.4 mg/kg
Activity [21]: Non-Toxic
Activity [22]: Non-Toxic
Activity (Mus musculus [23]): Dde
Activity (Mus musculus [24]): Active
IC50 (Cholinesterase [25]): 1.28 µM
IC50 (cells): 0.67 µM
Papp A→B at 2 h, 75 µM (in vitro [26]): 17.2 ×10⁻⁶ cm/s
Papp B→A at 2 h, 75 µM (in vitro [27]): 16.3 ×10⁻⁶ cm/s
efflux ratio at 2 h, 75 µM (P-glycoprotein): 0.95

O=C(CNc1ccccc1)Nc1ccc(-c2nc(-c3ccnc(Nc4ccc(OC(F)(F)F)cc4)c3)no2)cc1
IC50 (Acetylcholinesterase): > 50 µM
Ratio IC50 [28]: 26
viability at 5 µM (PC-12 [3]): 46.9%
viability at 20 µM (PC-12 [4]): 58.4%
viability at 24 h, 25 µM [5]: 99.8%
viability at 24 h, 50 µM [6]: 99.4%
IC50 (Cholinesterase [25]): 14.1 µM
IC50 (cells): 0.42 µM

O=C(CNCc1ccccc1)Nc1ccc(-c2nc(-c3ccnc(Nc4ccc(OC(F)(F)F)cc4)c3)no2)cc1
IC50 (Acetylcholinesterase): > 50 µM
viability at 5 µM (PC-12 [3]): 43.2%
viability at 20 µM (PC-12 [4]): 53.5%
viability at 24 h, 25 µM [5]: 99.7%
viability at 24 h, 50 µM [6]: 99.5%
IC50 (Cholinesterase [25]): 39.2 µM
IC50 (cells): 7.48 µM

O=C(CNc1ccc(C(F)(F)F)cc1)Nc1ccc(-c2nc(-c3ccnc(Nc4ccc(OC(F)(F)F)cc4)c3)no2)cc1
IC50 (Acetylcholinesterase): 46.5 µM
viability at 5 µM (PC-12 [3]): 55.8%
viability at 20 µM (PC-12 [4]): 61.7%
viability at 24 h, 25 µM [5]: 99.9%
viability at 24 h, 50 µM [6]: 99.7%
IC50 (Cholinesterase [25]): 1.88 µM
IC50 (cells): 1.61 µM

O=C(CNCc1ccc(C(F)(F)F)cc1)Nc1ccc(-c2nc(-c3ccnc(Nc4ccc(OC(F)(F)F)cc4)c3)no2)cc1
IC50 (Acetylcholinesterase): > 50 µM
viability at 5 µM (PC-12 [3]): 25.7%
viability at 20 µM (PC-12 [4]): 33%
viability at 24 h, 25 µM [5]: 99.7%
viability at 24 h, 50 µM [6]: 99.4%
IC50 (Cholinesterase [25]): 30.9 µM
IC50 (cells): 8.48 µM

Cc1ccc(NCC(=O)Nc2ccc(-c3nc(-c4ccnc(Nc5ccc(OC(F)(F)F)cc5)c4)no3)cc2)cc1
IC50 (Acetylcholinesterase): > 50 µM
viability at 5 µM (PC-12 [3]): 37.9%
viability at 20 µM (PC-12 [4]): 49.1%
viability at 24 h, 25 µM [5]: 100%
viability at 24 h, 50 µM [6]: 99.8%
IC50 (Cholinesterase [25]): 19.3 µM
IC50 (cells): 5.97 µM
